Data from US7071231B2, “Naphthalene ureas as glucose uptake enhancers” (Telik, Inc., priority 1999, dated 2006).
Where a name gives a salt, the structure may show the parent alone.

Key:
[1] = system: Salmonella typhimurium strains, TA100, TA1535, and TA1537; assay: Ames test, Salmonella typhimurium strains; conditions: 50 to 5000 μg/plate, without and with induced rat liver S-9 plus cofactors
[2] = system: 3T3 L1 fibroblasts; assay: Glucose transport activity assay (14C-2-deoxy-D-glucose uptake); type: cell-based
How it was run: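 Differentiated 3T3 L1 adipocytes (IBMX/dexamethasone/insulin induction), serum-starved overnight, preincubated 30 min at 37 °C with compound ± insulin in pH 7.4 salt buffer, then 30 min with 5 μCi/ml 14C-2-deoxy-D-glucose. Lysate radioactivity counted; EC = concentration raising uptake above 150% of vehicle control.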

[3] = system: Escherichia coli strain WP2uvrA; assay: Ames test, Escherichia coli strain; conditions: 50 to 5000 μg/plate, without and with induced rat liver S-9 plus cofactors
[4] = target: T1, β-kinase domain of the human insulin receptor (CKD) (Homo sapiens, UniProt P06213); assay: 32P-cytoplasmic kinase domain (CKD) autophosphorylation assay; type: biochemical; conditions: phosphorylation of CKD expressed as % of the vehicle level; 10 minutes at room temperature; compound concentration not given
T1 construct: The complete β-kinase domain of the human insulin receptor (CKD) was expressed in, and purified from, baculovirus; made in house
T1 sequence (P06213 980-1382 limits assumed): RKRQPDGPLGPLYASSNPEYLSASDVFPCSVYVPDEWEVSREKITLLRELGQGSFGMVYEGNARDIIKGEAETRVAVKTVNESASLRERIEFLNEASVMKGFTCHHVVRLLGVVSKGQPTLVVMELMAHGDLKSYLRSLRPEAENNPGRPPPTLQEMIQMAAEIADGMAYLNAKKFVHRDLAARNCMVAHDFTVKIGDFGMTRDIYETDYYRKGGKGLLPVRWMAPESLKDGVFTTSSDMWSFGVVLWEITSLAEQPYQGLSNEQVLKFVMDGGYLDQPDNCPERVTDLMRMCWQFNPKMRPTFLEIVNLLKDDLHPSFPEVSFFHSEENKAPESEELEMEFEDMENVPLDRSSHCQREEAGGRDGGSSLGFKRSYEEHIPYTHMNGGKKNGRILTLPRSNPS
Method: ^32P-cytoplasmic Kinase Domain (CKD) Autophosphorylation Assay The insulin signaling pathway is activated through stimulation of the insulin receptor. A major component of this activation is the phosphorylation of a specific portion of the receptor called the β-kinase domain. The complete β-kinase domain of the human insulin receptor (CKD) was expressed in, and purified from, baculovirus. CKD (4.0μg/ml), in a solution of 29 mM HEPES (pH 7.6), 0.05% Triton X-100, 10 mM MgCl2, 2 mM MnCl2 (50 μl final volume), was combined with 50 μM ATP, and 5 μCi ^32P-ATP (3000Ci/mmol.). A test compound, or the vehicle (dimethyl sulfoxide (DMSO)) was added to a final DMSO concentration of 1%. The mixture was incubated for 10 minutes at room temperature. The reaction was terminated by the addition of 10 μl 200 mM EDTA. A 30 μl volume was removed, mixed with 5 μl of 6× Laemmeli sodium dodecyl sulfate (SDS) treatment buffer, and heated to 94° C. for 5 minutes. A 20 μl aliquot was then run an SDS-PAGE gel. The radioactivity incorporated into the CKD band was quantified by phosphorimaging of the gel, or scintillation counting of the excised bands. The potency of a compound for increasing phosphorylation was expressed as % of the vehicle level.

[5] = system: 3T3 L1 adipocytes; assay: Effect of Wortmannin and Cytochalasin on glucose uptake; type: cell-based; conditions: Cytochalasin B 10 μM; stimulation by Compound 15 alone or Compound 15 plus 5.6 nM insulin
Method: Effect of Wortmannin and Cytochalasin on Glucose Uptake:
The glucose transport pathway stimulated by insulin involves activation of PI3 Kinase. Wortmannin is a selective inhibitor of PI3 Kinase and inhibits insulin-stimulated glucose transport. 3T3 L1 adipocytes were pretreated with 100 nM Wortmannin and stimulated with the compounds in the presence or absence of insulin. […] Insulin-stimulated glucose transport is mediated by glucose transporter proteins. Cytochalasin B is an inhibitor of glucose transporters and inhibits insulin-stimulated glucose uptake.

[6] = target: T2, human insulin receptor (Homo sapiens, UniProt P06213); assay: Whole-cell phosphorylation assay (3T3HIR cells); type: cell-based; conditions: 15 min, anti-phosphotyrosine Western, various concentrations (FIG. 2)
T2 construct: expressed in transfected cells; host or cells: NIH 3T3 (3T3HIR)
T2 sequence (P06213 763-1382 limits assumed): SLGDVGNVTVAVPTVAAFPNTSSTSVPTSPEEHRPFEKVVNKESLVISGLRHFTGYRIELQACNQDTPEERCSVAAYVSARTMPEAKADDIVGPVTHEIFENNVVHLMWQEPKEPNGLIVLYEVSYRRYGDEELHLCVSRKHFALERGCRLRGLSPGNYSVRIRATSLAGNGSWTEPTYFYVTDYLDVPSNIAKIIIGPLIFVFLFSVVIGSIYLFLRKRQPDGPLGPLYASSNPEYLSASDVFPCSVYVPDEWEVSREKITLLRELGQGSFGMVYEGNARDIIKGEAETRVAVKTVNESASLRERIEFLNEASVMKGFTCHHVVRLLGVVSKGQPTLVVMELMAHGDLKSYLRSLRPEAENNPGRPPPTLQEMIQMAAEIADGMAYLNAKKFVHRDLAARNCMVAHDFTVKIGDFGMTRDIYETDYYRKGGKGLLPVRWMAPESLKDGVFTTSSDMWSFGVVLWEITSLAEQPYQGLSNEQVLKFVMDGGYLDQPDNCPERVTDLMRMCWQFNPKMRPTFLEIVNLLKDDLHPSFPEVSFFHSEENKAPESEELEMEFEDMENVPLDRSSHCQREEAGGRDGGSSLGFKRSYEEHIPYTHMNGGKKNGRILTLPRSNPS
T2 sequence (P06213 28-758 partner limits assumed): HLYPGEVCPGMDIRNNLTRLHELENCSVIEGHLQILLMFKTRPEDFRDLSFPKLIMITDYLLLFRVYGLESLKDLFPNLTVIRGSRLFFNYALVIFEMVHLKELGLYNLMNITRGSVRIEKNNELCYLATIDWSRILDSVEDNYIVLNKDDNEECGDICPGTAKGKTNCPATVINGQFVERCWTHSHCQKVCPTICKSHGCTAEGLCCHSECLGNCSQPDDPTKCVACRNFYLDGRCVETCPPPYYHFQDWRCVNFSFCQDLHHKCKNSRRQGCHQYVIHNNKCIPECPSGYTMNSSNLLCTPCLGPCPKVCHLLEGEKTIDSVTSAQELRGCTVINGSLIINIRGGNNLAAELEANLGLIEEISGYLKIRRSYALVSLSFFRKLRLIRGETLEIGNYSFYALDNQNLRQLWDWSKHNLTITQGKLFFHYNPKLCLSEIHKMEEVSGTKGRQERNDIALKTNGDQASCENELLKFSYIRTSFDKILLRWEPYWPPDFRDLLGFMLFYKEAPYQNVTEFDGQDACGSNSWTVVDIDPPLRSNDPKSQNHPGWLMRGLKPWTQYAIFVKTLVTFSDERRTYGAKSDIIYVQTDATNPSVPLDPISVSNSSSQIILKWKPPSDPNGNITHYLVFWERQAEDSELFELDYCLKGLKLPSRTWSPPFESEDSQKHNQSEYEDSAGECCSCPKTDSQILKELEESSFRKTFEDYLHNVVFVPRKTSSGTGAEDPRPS
Method: Whole-cell Phosphorylation Assay:
The initial step in insulin signaling is phosphorylation of the insulin receptor in response to insulin binding. NIH 3T3 cells overexpressing human insulin receptor (3T3HIR) were grown for 2 days at a density of 2×10^5/ml cells in 6 well culture dishes in DMEM with 10% FBS and L-glutamine. Prior to the experiment the cells were serum-starved overnight with DMEM with 0.1% BSA. The following morning, the cells were washed with PBS and the medium was replaced with 150 mM NaCl, 1.7 mM KCl, 0.9 mM CaCl2, K2HPO4 (pH 7.4), to which were added either the experimental compounds, or their vehicle (DMSO). Insulin or its vehicle (0.01% BSA) was diluted in the assay buffer (containing test compound or vehicle, respectively) to a final concentration of 2.5 nM. After incubating for 15 min, the cells were washed with cold PBS twice and lysed in 50 mM Tris.HCl, pH 7.4 150 mM NaCl, 0.25% sodium deoxycholate, 1% NP-40, 1 mM EGTA, 1 mM PMSF, 1 mM Na3VO4, 1 mM NaF, 1 ug/ml each of Aprotinin, Leupeptin and Pepstatin. The cell lysates were clarified by centrifugation at 12000 rpm, and the supernatants were estimated for protein concentration. Total cell lysate ([…]) was boiled with 2× SDS-PAGE sample buffer for 3 min and loaded into 7.5% SDS-PAGE along with Amersham rainbow marker protein as a molecular weight standard. […]

[7] = system: STZ/HFD rat; assay: Blood glucose determination in the STZ/HFD rat model of Type 2 diabetes; type: in vivo; conditions: STZ/HFD rat model, oral compound administration (30 mg/kg)
From the text: Blood Glucose Determination in the STZ/HFD Rat Model of Type 2 Diabetes
Representative compounds were also profiled in genetically normal rats given a high-fat diet followed by treatment with a low dose of streptozotocin (STZ/HFD). This treatment regimen recreates both the insulin resistance and the hyperglycemia seen in human Type 2 diabetes. Male CD rats (Jackson Labs, Bar Harbor Me.) were maintained according to NIH guidelines, housed two per cage, and fed either standard lab chow (Tekland Laboratory Diets, James Grain, San Jose, Calif.) or the same chow supplemented with chocolate bars, cookies, and potato chips such that their final diet contained 30% fat by weight (high-fat diet; HFD). After two weeks of this diet, the animals were given an injection of freshly-prepared streptozotocin (35 mg/kg, i.p.) and continued on the HFD. Animals that achieved glucose levels of 190 to 380 mg/dl were used in this study. At the end of the 12-hour light/dark cycle, and just prior to the experiment, the animals were moved to new cages with no food available until 4 hours after treatment. The compound or vehicle (PBS) was given p.o. by gavage, and blood was sampled by approved IACUC protocol using tail cap method. Glucose was determined using the Glucometer Elite (Bayer, Elkhart, Ind.).
The reduction was maximal (20%) 4 hours after the administration of Compound 15.

SMILES	mutagenicity (revertant colonies), histidine operon [1]	EC (150% of vehicle control) ([2]; Mus musculus, 3T3-L1, read-out: Concentration (μM) to reach >150% activity of vehicle control) [µM]	mutagenicity (revertant colonies), tryptophan operon [3]	% Activity vs. Control [4] [%]	effect on stimulation of glucose transport [5]	glucose uptake of cells ([2]; in the presence or absence of insulin (FIG. 3))	autophosphorylation of the insulin receptor in whole cells [6]	% Reduction in Blood Glucose (maximal reduction) [7] [%]	Time (h) at which maximal reduction in blood glucose occurred [7] [h]
O=C(Nc1ccc2c(O)cc(S(=O)(=O)O)cc2c1)Nc1ccc2c(O)cc(S(=O)(=O)O)cc2c1 [Compound 4, 4-hydroxy-7-{[(5-hydroxy-7-sulfo(2-naphthyl))amino]carbonylamino}naphthalene-2-sulfonic acid disodium salt]	negative	32	negative	152					
C=C1[C@@H](C)[C@H]2[C@H](Cc3ccccc3)NC(=O)[C@]23OC(=O)/C=C/[C@H](O)CCC[C@@H](C)C/C=C/[C@H]3[C@@H]1O [Cytochalasin B]					inhibited the stimulation of glucose transport				
O=C(Nc1ccc2ccc(S(=O)(=O)Nc3cccc(S(=O)(=O)O)c3)cc2c1)Nc1ccc2ccc(S(=O)(=O)Nc3cccc(S(=O)(=O)O)c3)cc2c1 [Compound 13, 3-{[(7-{[N-(7-{[(3-sulfophenyl)amino]sulfonyl}-2-naphthyl)carbamoyl]amino}-2-naphthyl)sulfonyl]amino}benzenesulfonic acid disodium salt]				135		increase in glucose uptake of cells	increase of autophosphorylation	20	1
